The subject of assay [1] is BDNF protein concentration in ventral C3-C5. In words: Ventral C3-C5 BDNF protein concentration (ELISA) after intermittent hypoxia, intrathecal drug pretreatment. The assay is classed as in vivo, rat. The following applies: 60 min post-intermittent hypoxia, intrathecal methysergide 250 microgram/kg or emetine 1 μg/kg 30 min prior. The procedure: (§1) Surgical procedures have been described elsewhere (7). Rats were anesthetized with isoflurane (2.5% in 50% O2), vagotomized and pump-ventilated (Harvard Apparatus, South Natick, Mass.). The phrenic nerve was dissected, cut distally and desheathed. A laminectomy was performed over C2, and a silicone catheter (2 French, Access Technologies; Skokie, Ill.) connected to a 50 μl glass syringe (Hamilton; Reno Nev.) was advanced through a small hole in the dura at C2, such that the tip of the catheter lay over C4-C5. Following surgery, rats were converted to urethane anesthesia (1.6 g/kg, i.v.) and were paralyzed with pancuronium bromide (2.5 mg/kg). Supplemental doses of urethane were given as necessary. […] End-tidal PCO2 was monitored using a flow-through capnograph (Novametrix, Wallingford, Conn.). […]
Ninety minutes after surgery, stable integrated phrenic discharge was established in hyperoxia (baseline; 50% O2, PaO2>120 mmHg), with CO2 added to the inspired gas so that PaCO2 was 2-3 mmHg above the CO2 apneic threshold (45 mmHg). […] Blood gases were measured before, during, and 15, 30 and 60 min post-intermittent hypoxia or hypercapnia, or at corresponding times in control rats (without hypoxia or hypercapnia). […]
(In general: In an ELISA, binding on a coated surface is turned into a signal by an enzyme label.)

Assay [2] deals with phrenic long-term facilitation (pLTF). Briefly: pLTF following intermittent hypoxia after intrathecal pretreatment. The assay is classed as in vivo, rat. To be noted: for effect on pLTF: one anesthetized rat each, intrathecal, 30 min prior to intermittent hypoxia, UO126 0.4 mg, KN62/KN93 2 mg.
Method: The phrenic nerve was dissected, cut distally and desheathed. A laminectomy was performed over C2, and a silicone catheter (2 French, Access Technologies; Skokie, Ill.) connected to a 50 μl glass syringe (Hamilton; Reno Nev.) was advanced through a small hole in the dura at C2, such that the tip of the catheter lay over C4-C5. Following surgery, rats were converted to urethane anesthesia (1.6 g/kg, i.v.) and were paralyzed with pancuronium bromide (2.5 mg/kg). Supplemental doses of urethane were given as necessary. […] End-tidal PCO2 was monitored using a flow-through capnograph (Novametrix, Wallingford, Conn.). Periodically throughout the protocol, arterial blood was collected (0.3 ml) in a heparinized syringe to ensure that values remained constant (PaO2<45 mmHg in hypoxia, PaO2>120 mmHg in hyperoxia, PaCO2±1 mmHg from baseline value). Arterial PCO2 was corrected to the target range by adjusting ventilator frequency as necessary.
Ninety minutes after surgery, stable integrated phrenic discharge was established in hyperoxia (baseline; 50% O2, PaO2>120 mmHg), with CO2 added to the inspired gas so that PaCO2 was 2-3 mmHg above the CO2 apneic threshold (45 mmHg). In rats receiving intrathecal injections of vehicle or drug solutions, a bolus injection of 10-15 μl was given, and 30-35 min were allowed for drugs to penetrate the spinal cord prior to beginning protocols. Blood gases were measured before, during, and 15, 30 and 60 min post-intermittent hypoxia or hypercapnia, or at corresponding times in control rats (without hypoxia or hypercapnia).
Intrathecal injections of K252a were performed prior to intermittent hypoxia; K252a was prepared as described above. Intrathecal K252a (n=6) or vehicle (DMSO+artificial CSF; n=5) was delivered 30 min prior to intermittent hypoxia, and phrenic discharge was monitored continuously for 60 min post-intermittent hypoxia.
Assay [3] concerns phrenic LTF. Briefly: pLTF following sustained hypoxia after protein phosphatase inhibition. The assay is classed as in vivo, rat. To be noted: okadaic acid 0.15 mg; 20 mM intrathecally to C4 30 min prior to sustained hypoxia (25 min). As for the experimental part:
Air, O2 and/or N2 were mixed to achieve the desired pattern of inspired oxygen concentration. […] Control groups receiving similar surgery or treatments, but not receiving hypoxia, […].
Accordingly, in one anesthetized rat, […] okadaic acid (0.15 mg; 20 mM), a protein phosphatase 1/2A (PP1 and PP2A) inhibitor, was delivered intrathecally to C4 30 min prior to sustained hypoxia (25 min). […] This finding has been successfully repeated in three additional rats.

The subject of assay [4] is phrenic burst amplitude. Type of assay: in vivo, rat. The procedure: To determine if MAP kinase activation is sufficient to facilitate phrenic burst amplitude, one anesthetized rat was intrathecally injected with anisomycin ([…]; 20 mM), a protein synthesis inhibitor that also non-specifically activates MAP kinases.
The target of assay [5] is TrkB receptor (rat) (UniProt Q63604). In words: cell-based or functional assay.
Sequence of TrkB receptor (rat) (Q63604 32-821): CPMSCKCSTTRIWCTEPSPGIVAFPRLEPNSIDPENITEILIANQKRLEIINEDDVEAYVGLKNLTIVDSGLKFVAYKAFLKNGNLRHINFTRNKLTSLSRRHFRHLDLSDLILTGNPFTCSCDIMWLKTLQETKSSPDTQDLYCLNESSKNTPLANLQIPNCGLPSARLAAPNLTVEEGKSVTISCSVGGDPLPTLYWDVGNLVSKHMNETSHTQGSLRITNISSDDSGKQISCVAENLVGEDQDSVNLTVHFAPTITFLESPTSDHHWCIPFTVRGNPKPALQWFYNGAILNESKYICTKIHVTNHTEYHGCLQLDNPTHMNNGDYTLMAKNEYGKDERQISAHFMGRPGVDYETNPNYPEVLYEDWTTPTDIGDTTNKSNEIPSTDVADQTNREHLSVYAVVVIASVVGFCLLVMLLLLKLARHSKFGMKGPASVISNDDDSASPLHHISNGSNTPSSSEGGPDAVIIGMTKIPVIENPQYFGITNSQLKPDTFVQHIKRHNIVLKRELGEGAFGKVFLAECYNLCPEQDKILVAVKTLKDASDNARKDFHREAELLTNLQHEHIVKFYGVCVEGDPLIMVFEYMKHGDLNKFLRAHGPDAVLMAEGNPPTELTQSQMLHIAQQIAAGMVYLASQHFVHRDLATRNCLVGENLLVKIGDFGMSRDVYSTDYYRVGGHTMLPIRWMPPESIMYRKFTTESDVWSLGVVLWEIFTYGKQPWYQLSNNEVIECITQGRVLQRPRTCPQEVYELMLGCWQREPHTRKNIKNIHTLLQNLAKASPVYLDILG
The subject of assay [6] is phrenic motor output. In words: Phrenic activity following intrathecal BDNF injections. Type of assay: in vivo, rat. To be noted: 90 min post-injection. As for the experimental part: as §1
Respiratory-related activity was recorded in the phrenic nerve with a bipolar silver electrode. […] Phrenic activity was digitized, recorded and analyzed using the WINDAQ data acquisition system (DATAQ Instruments, Akron, Ohio).
An intrathecal catheter was placed and 10-13 μl solutions of BDNF (0.1 μg, n=5) or vehicle (artificial CSF+0.1% BSA; n=5) were injected. To determine if intrathecal BDNF injections unintentionally spread beyond the spinal cord to cranial motor pools, the hypoglossal nerve was also dissected, desheathed and recorded. […]

Assay [7] has as its system hypoglossal nerve activity. Briefly: Hypoglossal nerve activity following intrathecal BDNF injections. Type of assay: in vivo, rat. To be noted: intrathecal BDNF 0.1 μg; 90 min post-injection. The procedure: An intrathecal catheter was placed and 10-13 μl solutions of BDNF (0.1 μg, n=5) or vehicle (artificial CSF+0.1% BSA; n=5) were injected. To determine if intrathecal BDNF injections unintentionally spread beyond the spinal cord to cranial motor pools, the hypoglossal nerve was also dissected, desheathed and recorded. […] In another group of rats, two intrathecal catheters were placed over C4, and a bolus injection of the tyrosine kinase inhibitor K252a was given 10 min prior to BDNF injection (BDNF+K252a; BDNF=0.1 μg; K252a=0.15 microgram, n=3). Recombinant human BDNF (Promega Corporation, Madison, Wis.) was dissolved in artificial CSF+0.1% bovine serum albumin (BSA). K252a (Calbiochem; San Diego, Calif.) was initially dissolved in dimethylsulfoxide (DMSO; 100 μg K252a in 1.5 ml DMSO) and frozen in 200 μl aliquots. Prior to experimentation, 0.8 ml artificial CSF was added to a 200 μl aliquot of K252a/DMSO solution, of which 10-15 μl was delivered intrathecally (final concentration of K252a=0.13-0.2 μg; 28 μM). Vehicle delivery was as described above (DMSO+artificial CSF), except K252a was not added. At 30, 60 and 90 min post-injection, arterial blood gases were analyzed to ensure that PaO2 and PaCO2 levels were similar to pre-injection values.

Where a name gives a salt, the structure may show the parent alone.

For the molecule `CC[C@H]1CN2CCc3cc(OC)c(OC)cc3[C@@H]2C[C@@H]1C[C@H]1NCCc2cc(OC)c(OC)cc21` [emetine], in assay [1], the “change in ventral cervical BDNF concentration from corresponding drug control” value is listed as 19±11%.

As for `CN([C@@H](Cc1ccc(OS(=O)(=O)c2cccc3cnccc23)cc1)C(=O)N1CCN(c2ccccc2)CC1)S(=O)(=O)c1cccc2cnccc12` [KN62], in assay [2], the “effect on pLTF” value is “did not block pLTF”.

As for `C=C1[C@@H](O)[C@@H]2O[C@]3(CC[C@H](/C=C/[C@@H](C)[C@@H]4CC(C)=C[C@@]5(O[C@H](C[C@@](C)(O)C(=O)O)CC[C@H]5O)O4)O3)CC[C@H]2O[C@@H]1[C@@H](O)C[C@H](C)[C@H]1O[C@@]2(CCCCO2)CC[C@H]1C` [okadaic acid], the “pLTF 60 min following sustained hypoxia” value in assay [3] is “a modest pLTF was apparent”.

For `COc1ccc(C[C@H]2NC[C@H](O)[C@H]2OC(C)=O)cc1` [anisomycin], in assay [4] (one anesthetized rat, intrathecal anisomycin 100 mg, 20 mM, thirty min post-injection), the “phrenic burst amplitude increase above pre-injection levels” value is recorded as 60%.

On to `COc1ccc(S(=O)(=O)N(CCO)c2ccccc2CN(C)C/C=C/c2ccc(Cl)cc2)cc1` [KN93], for which the “effect on pLTF” value in assay [2] is reported as “did not block pLTF”.

Consider “Recombinant human BDNF (Promega Corporation) (from UniProt P23560 129-247) (ligand)”, for which, in assay [5], the integrated phrenic discharge (percent change from baseline) 90 min after intrathecal BDNF injection in anesthetized rats (% above baseline) is 125.

On to `CC[C@@H](CO)NC(=O)[C@@H]1C=C2c3cccc4c3c(cn4C)C[C@H]2N(C)C1` [methysergide, methysergide maleate], for which the “change in ventral cervical BDNF concentration from corresponding drug control” value in assay [1] is −10±8%.

For `COC(=O)[C@@]1(O)C[C@H]2O[C@]1(C)n1c3ccccc3c3c4c(c5c6ccccc6n2c5c31)C(=O)NC4` [K252a], the “phrenic burst amplitude increase from baseline (pLTF)” value in assay [2] (60 min post-intermittent hypoxia, intrathecal K252a 0.13-0.2 μg 30 min prior) came out at 25±6%. The “BDNF-induced phrenic facilitation after K252a pre-treatment, change from baseline” value in assay [6] (intrathecal K252a 10 min prior to BDNF 0.1 μg) came out at 9±10%.

On to `N#CC(=C(/N)Sc1ccccc1N)/C(C#N)=C(/N)Sc1ccccc1N` [UO126], for which the “effect of pretreatment on anisomycin-induced increase in phrenic amplitude” value in assay [4] (UO126 0.4 mg, 100 mM pretreatment, n=1) is “prevented the effect”. Also, the “effect on pLTF” value in assay [2] was “blocked pLTF”.

B1: BDNF: Recombinant human BDNF (Promega), brain-derived neurotrophic factor (protein)
chain: HSDPARRGELSVCDSISEWVTAADKKTAVDMSGGTVTVLEKVPVSKGQLKQYFYETKCNPMGYTKEGCRGIDKRHWNSQCRTTQSYVRALTMDSKKRIGWRFIRIDTSCVCTLTIKRGR
B1: the “hypoglossal nerve activity, change from baseline” value in assay [7] turned out to be 30±17%. The “integrated phrenic discharge, change above baseline” value in assay [6] (intrathecal BDNF 0.1 μg) was found to be 125±25%.
